Source: patent US8980795B2, “Strigolactone analogues and their use” (King Abdullah University of Science and Technology, priority 2011, dated 2015)

Tests used:
ccd8 rice mutant (d10) = experiment: Rice tillering assay; format: in vivo, rice (Oryza sativa L.); settings: 2 μM through nutrient solution, supplied daily, tillers counted up to 12 days
Description: Rice seeds were surface sterilized with 2% sodium hypochlorite. The seeds were allowed to germinate in a Petri dish on a moistened filter paper. In the meanwhile bottom of 1.5 ml eppendorf tube was cut and filled with 0.6% phyto-agar. One pre-germinated seed was planted in the center of the tube on solid phytoagar and this tube was fitted in the cap of 10 ml plastic tube. The 10 ml tube was filled with modified Hoagland nutrient solution. After two weeks of planting, the compound of formula IA (2 μM) was added through nutrient solution to half of the tubes of each rice cultivars/mutants and the remaining half were kept as control. The nutrient solution with or without the compound of formula IA was supplied daily. Number of tillers per plant was counted at 24 hours interval up to 12 days of carlactone application.

Striga hermonthica seeds = experiment: Striga seed germination assay; format: in vivo; settings: concentration of 3.3 μM; positive control, same conditions
Description: Striga Seed Germination Assay Pre-conditioning of Striga hermonthica seeds was carried out in a first step to see the effect of germination stimulants. For this purpose clean Striga seeds were surface sterilized with 2% sodium hypochlorite in sterile water containing 0.4% of Tween-20. About 50 to 100 sterilized seeds were spread on 9-mm diameter glass fibre filter paper discs. Twelve of these discs were placed in a 9-cm diameter Petri-dish on sterilized Whatman filter paper, moistened with 3.0 ml sterilized water. After sealing with parafilm, the Petri-dishes were placed in darkness in an incubator at 30° C. After 10 days of incubation, the discs with preconditioned seeds were supposed to be ready to test germination stimulant. Surplus moisture was evaporated from each petri dish in laminar flow cabinet. The dry discs were then placed in another Petri-dish (six per Petri-dish) containing a filter paper ring (outer diameter 9 cm, inner diameter 8 cm) moistened with 0.9 ml water. Various concentration of the compound of formula IA were applied (50 μl per disc) to triplicate discs. GR24, a synthetic strigolactone analogue, was applied as positive control. Subsequently, the Striga seeds were incubated in darkness at 30° C. for another 48 hours and germination (seeds with radicle protruding through the seed coat) scored with the help of a binocular microscope.

SMILES	tiller number (ccd8 rice mutant (d10))	germination activity (Striga hermonthica seeds) [%]
CC1=CC(O/C=C(C)\C=C\C2=C(C)CCCC2(C)C)OC1=O (centres unmarked) [Compound IA]	reduction of tiller number	
CC1CC(O/C=C2/C(=O)OC3c4ccccc4CC23)OC1=O (centres unmarked) [GR24]		~50
